Among the data in BindingDB's records for doi:10.1016/j.bmcl.2011.12.068 (Janssen Pharmaceutica, 2012) are IC50 values, retold here.

Test [1] concerns the target Transient receptor potential cation channel subfamily A member 1 (Homo sapiens, UniProt O75762). Put plainly: Antagonist activity at human TRPA1 expressed in HEK293 cells assessed as inhibition of 5H-dibenzo[b,e]azepine-10-carboxylic acid methyl ester-induced increase in intracellular calcium by Fluo4-AM based fluorometric assay. (Calcium flux is commonly read through the fluorescence of an indicator in the cells.)

Test [2] has as its target Transient receptor potential cation channel subfamily A member 1 (Rattus norvegicus, UniProt Q6RI86). Put plainly: Antagonist activity at rat TRPA1 expressed in HEK293 cells assessed as inhibition of BITC-induced increase in intracellular calcium concentration by Fluo4-AM based fluorometric assay.

The term IC50 denotes the concentration that inhibits the measured activity by half.

Structures are written as SMILES.

Chain of Transient receptor potential cation channel subfamily A member 1 (Homo sapiens, UniProt O75762) (O75762 whole entry): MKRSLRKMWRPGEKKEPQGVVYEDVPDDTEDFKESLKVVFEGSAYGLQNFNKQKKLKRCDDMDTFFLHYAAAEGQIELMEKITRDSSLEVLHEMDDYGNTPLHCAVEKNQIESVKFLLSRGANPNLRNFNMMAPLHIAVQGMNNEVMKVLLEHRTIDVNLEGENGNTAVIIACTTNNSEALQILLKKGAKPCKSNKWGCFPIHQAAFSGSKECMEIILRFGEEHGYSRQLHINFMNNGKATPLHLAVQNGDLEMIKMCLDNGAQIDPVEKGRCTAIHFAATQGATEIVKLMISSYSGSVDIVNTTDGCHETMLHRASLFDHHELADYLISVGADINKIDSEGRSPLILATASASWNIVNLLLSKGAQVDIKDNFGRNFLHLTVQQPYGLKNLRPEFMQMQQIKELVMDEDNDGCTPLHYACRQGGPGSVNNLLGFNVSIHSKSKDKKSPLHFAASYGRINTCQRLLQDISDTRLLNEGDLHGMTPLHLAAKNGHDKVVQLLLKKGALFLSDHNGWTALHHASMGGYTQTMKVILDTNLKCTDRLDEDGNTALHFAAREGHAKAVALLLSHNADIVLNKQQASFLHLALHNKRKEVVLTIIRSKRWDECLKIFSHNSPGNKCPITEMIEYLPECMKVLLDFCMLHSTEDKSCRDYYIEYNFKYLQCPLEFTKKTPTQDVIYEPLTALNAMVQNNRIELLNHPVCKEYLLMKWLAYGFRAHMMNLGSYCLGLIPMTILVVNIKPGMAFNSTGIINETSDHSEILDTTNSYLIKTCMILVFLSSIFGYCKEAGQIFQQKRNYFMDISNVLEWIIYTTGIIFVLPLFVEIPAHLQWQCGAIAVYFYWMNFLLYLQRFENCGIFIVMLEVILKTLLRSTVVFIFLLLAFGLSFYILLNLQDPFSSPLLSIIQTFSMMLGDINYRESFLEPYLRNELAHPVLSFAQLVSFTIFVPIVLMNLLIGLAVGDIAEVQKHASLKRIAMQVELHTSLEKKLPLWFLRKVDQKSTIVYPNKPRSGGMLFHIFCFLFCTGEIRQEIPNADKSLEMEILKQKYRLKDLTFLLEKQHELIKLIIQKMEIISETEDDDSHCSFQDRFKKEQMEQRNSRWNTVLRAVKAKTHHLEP
Chain of Transient receptor potential cation channel subfamily A member 1 (Rattus norvegicus, UniProt Q6RI86) (Q6RI86 whole entry E27K): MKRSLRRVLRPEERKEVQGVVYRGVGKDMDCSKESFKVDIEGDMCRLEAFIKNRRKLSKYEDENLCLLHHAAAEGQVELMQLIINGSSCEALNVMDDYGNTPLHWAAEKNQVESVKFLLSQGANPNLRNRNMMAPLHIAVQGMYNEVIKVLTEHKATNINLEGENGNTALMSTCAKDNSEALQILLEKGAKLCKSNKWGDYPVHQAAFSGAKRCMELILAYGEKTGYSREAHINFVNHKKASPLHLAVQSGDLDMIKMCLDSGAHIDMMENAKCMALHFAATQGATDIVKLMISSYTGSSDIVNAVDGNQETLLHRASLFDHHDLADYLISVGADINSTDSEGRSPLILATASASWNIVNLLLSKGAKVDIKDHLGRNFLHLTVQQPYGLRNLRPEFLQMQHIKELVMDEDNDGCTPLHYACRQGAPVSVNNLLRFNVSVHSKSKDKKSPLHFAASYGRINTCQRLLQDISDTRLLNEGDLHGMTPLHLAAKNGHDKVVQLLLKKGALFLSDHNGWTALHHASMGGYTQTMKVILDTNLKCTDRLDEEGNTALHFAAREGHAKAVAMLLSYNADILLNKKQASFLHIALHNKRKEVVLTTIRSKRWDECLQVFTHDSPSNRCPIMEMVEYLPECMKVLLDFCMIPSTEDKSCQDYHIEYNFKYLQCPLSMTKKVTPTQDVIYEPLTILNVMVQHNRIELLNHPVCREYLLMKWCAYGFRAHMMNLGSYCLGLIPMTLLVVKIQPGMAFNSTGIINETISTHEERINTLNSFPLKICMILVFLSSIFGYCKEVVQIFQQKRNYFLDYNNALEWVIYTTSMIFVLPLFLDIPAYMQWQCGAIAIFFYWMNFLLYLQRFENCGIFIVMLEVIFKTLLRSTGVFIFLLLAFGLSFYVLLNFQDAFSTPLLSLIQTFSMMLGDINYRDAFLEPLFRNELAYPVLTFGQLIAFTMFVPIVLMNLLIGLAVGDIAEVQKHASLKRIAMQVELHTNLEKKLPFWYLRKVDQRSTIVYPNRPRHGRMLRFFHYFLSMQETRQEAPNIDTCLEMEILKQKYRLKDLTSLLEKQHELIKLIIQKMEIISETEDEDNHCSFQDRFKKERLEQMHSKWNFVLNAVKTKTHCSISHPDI

As to `S=C1N=C2CCCC2C(c2ccccc2)N1` (stereo not given), in test [1], the 50% inhibitory concentration (IC50) is above 10 µM.

For the molecule `COc1ccc(OC)c(C2NC(=S)N=C3c4ccccc4C(=O)C32)c1` (stereo not given), the concentration for half-maximal inhibition (IC50) in test [2] and in test [1] was above 10 µM in each case.

As to `CN(C)CCCOc1cccc(C2NC(=S)N=C3c4ccccc4C(=O)C32)c1` (stereo not given), the IC50 in test [2] and in test [1] was above 10 µM throughout.

Consider `S=C1N=C(c2ccccc2)CC(c2ccccc2)N1` (stereo not given), for which the IC50 in test [1] was above 10 µM.

As to `O=C1CCCC2=NC(=S)NC(c3ccccc3)C12` (stereo not given), the 50% inhibitory concentration (IC50) in test [1] was above 10 µM.

On to `S=C1N=C2c3ccccc3CCC2C(c2ccccc2)N1` (stereo not given), for which, in test [1], the IC50 is above 10 µM.

Take `CC1=NC(=S)NC(c2ccccc2)C1C(=O)c1ccccc1` (stereo not given): the IC50 in test [1] is above 10 µM.

On to `O=C1N=C2c3ccccc3C(=O)C2C(c2ccccc2)N1` (stereo not given), for which the concentration for half-maximal inhibition (IC50) in test [2] and in test [1] was above 10 µM in each case.

Take `O=C(O)c1cccc(C2NC(=S)N=C3c4ccccc4C(=O)C32)c1` (stereo not given): the half-maximal inhibitory concentration (IC50) in test [2] and in test [1] was above 10 µM throughout.

Turning to `S=C1N=C2C(=Cc3ccccc3)CCCC2C(c2ccccc2)N1` (stereo not given), the half-maximal inhibitory concentration (IC50) in test [1] is above 10 µM.

`S=C1N=C2CCCCC2C(c2ccccc2)N1` (stereo not given): in test [1], the half-maximal inhibitory concentration (IC50) is above 10 µM.
